# Tests used:
# [1] = system: DSP-4 induced noradrenaline depletion in mouse hippocampus; test: Prevention of DSP-4 induced noradrenaline depletion in mouse hippocampus; assay type: in vivo; details: for protection against DSP-4 induced noradrenaline depletion / neuroprotective effect: 10 mg/kg, mouse hippocampus, in words
# Experimental: (§1) Neuroprotectant activity was evaluated by examining the prevention of DSP-4 induced noradrenaline depletion in mouse hippocampus as described in Yu, P. H., Davis, B. A., Fang, J. and Boulton, A. A. (1994), Neuroprotective effect of some monoamine oxidase-B inhibitors against DSP-4 induced noradrenaline depletion in the mouse hippocampus, J. Neurochem. 63: 1820-1828. Briefly, mice were injected (i.p.) with either 20% DMSO or potential neuroprotectants (10 mg/kg in 20% DMSO). One hour later they were injected with either water or DSP-4 (50 mg/kg in water). One week later the mice were killed and the brains removed and the hippocampus dissected out. The hippocampus was frozen and saved for estimation of noradrenaline and other aminergic neurotransmitters and their metabolites as in Sloley, B. D. and Goldberg J. I. (1991), Determination of γ-glutamyl conjugates of monoamines by means of high-performance liquid chromatography with electrochemical detection and application to gastropod tissues, J. Chromatog. 567: 49-56. The rest of the brain was frozen and retained for estimation of monoamine oxidase activities ex vivo as described earlier.
# [2] = system: NA, DA, 5-HT, 5-HIAA and DOPAC concentrations in rat hypothalamus; test: Rat hypothalamus amine and amine metabolite concentrations; assay type: in vivo
# Experimental: The effects of various doses of CVT-P040 on the concentrations of hypothalamus amine neurotransmitters and their metabolites were evaluated by examining concentrations of noradrenaline (NA), dopamine (DA), 5-hydroxytryptamine (5-HT), 5-hydroxyindoleacetic acid (5-HIAA) and 3,4-dihydroxyphenylacetic acid (DOPAC) in rat hypothalami 5 hours after the injection of the drug. […] The brains were removed and divided in half. One half of the brain was frozen in isopentane on dry ice and retained for estimates of amino acid neurotransmitter concentrations. The other half had the hypothalamus removed and frozen on dry ice for later estimates of amines and their metabolites according to the method of Sloley, B. D. and Goldberg J. I. (1991), Determination of γ-glutamyl conjugates of monoamines by means of high-performance liquid chromatography with electrochemical detection and application to gastropod tissues, J. Chromatog. 567: 49-56. The rest of the brain was frozen on dry ice for ex vivo examination of MAO activity as described earlier.
# [3] = system: rat brain and liver monoamine oxidase-B; test: Monoamine oxidase-B inhibiting activity ex vivo; assay type: in vivo
# Experimental: Radiolabelled β-phenylethylamine was employed as a substrate for monoamine oxidase-B. The compounds of interest were either injected intraperitoneally in DMSO or administered by gavage in water for various periods. The animals were killed by decapitation and the brains and livers immediately removed and frozen until assayed for monoamine oxidase-B activity. Tissues were homogenized and appropriately diluted in buffer prior to incubation. Incubations proceeded at 37° C. for 10 minutes. Incubation was terminated by the addition of acid and the radiolabelled product (phenylacetic acid) was extracted and quantified by liquid scintillation counting procedures. Incubations were done in triplicate and incubations containing phenelzine were included for comparison. The percent inhibition of monoamine oxidase-B activity compared to controls containing no drug was calculated.
# Values are the mean ± the standard error based on (n) determinations.
# Oral doses were administered as 75 μmol/kg on day 1, 75 μmol/kg on
# day 2 and the animals were killed 5 hours later.
# MAO-A = MAO-A inhibition ex vivo in DSP-4 treated mice (brain); design: species or system mouse
# Experimental: The compounds were evaluated for ex vivo monoamine oxidase-A inhibiting activity using the radiochemical procedure of Lyles, G. A. and Callingham, B. A. (1982). […] Biochem. Pharmacol. 31: 1417-1424. Radiolabelled 5-hydroxytryptamine was used as a substrate for monoamine oxidase-A. The compounds of interest were either injected intraperitonealy in DMSO or administered by gavage in water for various periods. The animals were killed by decapitation and the brains and livers immediately removed and frozen until assayed for monoamine oxidase-A activity. Tissues were homogenized and appropriately diluted in buffer prior to incubation. Incubations proceeded at 37° C. for 10 minutes. Incubation was terminated by the addition of acid and the radiolabelled product (5-hydroxyindoleacetaldehyde and 5-hydroxyindoleacetic acid) was extracted and quantified by liquid scintillation counting procedures. Incubations were done in triplicate and incubations containing phenelzine were included for comparison. The percent inhibition of monoamine oxidase-A activity compared to controls containing no drug was calculated.
# as §1
# [4] = system: serotonin uptake in rat striatal prisms; test: Serotonin (5-HT) uptake inhibition in rat striatal prisms in vitro; assay type: biochemical
# Experimental: CVT-P040 was evaluated for the ability to inhibit serotonin uptake in rat striatal prisms using the procedure of Martin, I. L., Baker, G. B. and Mitchell, P. R. (1978), The effect of viloxazine hydrochloride on the transport of noradrenaline, dopamine, 5-hydroxytryptamine and γ-aminobutyric acid in rat brain tissue Neuropharmacology 17: 421-423. Briefly, untreated rats were killed by guillotine decapitation, their brains removed, placed on an ice-cooled plate and the striatum was dissected out from the rest of the brain. The striatum was then chopped into 0.1×0.1×2 mm prisms using a Mcllwain tissue chopper and suspended in 5 volumes incubation medium containing 123 mM sodium chloride, 5 mM potassium chloride, 2.7 mM calcium chloride, 1.2 mM magnesium sulphate, 20 mM TRIS-HCl buffer (pH 7.5), 1 mM ascorbic acid, 10 mM glucose and 12.5 μM nialamide. The suspension was stored out of direct light and buried in ice. Aliquots (1 ml) of the tissue suspension were added to flasks containing 4 ml of incubation medium and this mixture was incubated for 15 min at 37° C. in a shaking water bath. Next, 10 µl of the appropriate chemical was added to each tube except the blanks and controls, followed by the addition of 10 μl of ^3 H-5-HT (final concentration 0.1 μM). The mixtures were incubated for 5 min at 37° C., then quickly filtered with a Millipore vacuum filter apparatus and rinsed two times with 5 ml warm (37° C.) incubation medium. Filters were transferred to scintillation vials and 10 ml Ready Safe scintillation cocktail was added to each. Radioactive content per tube was counted using a liquid scintillation spectrophotometer. Percent 5-HT uptake inhibition was calculated by applying the following equation: [formula]
# [5] = 10 mg/kg i.p. then DSP-4 50 mg/kg, 20% DMSO control experiment
# [6] = brain, 150 μmol/kg, 5 hr, i.p. in 10% DMSO (Table 4, MAO-B by title)
# [7] = brain, 2 × 75 μmol/kg per os (Table 4, MAO-B by title)
# [8] = liver, 2 × 75 μmol/kg per os (Table 4, MAO-B by title)
smiles,measurement,setting,value
"C#CCN(N)CCc1ccccc1 [CVT-P040, N^1 -propargylphenelzine]",% NA Restoration,[1]; [5],55.4%
same,NA,[1]; [5],235 ± 26 ng/g
same,protection against DSP-4 induced noradrenaline depletion / neuroprotective effect,[1],significantly protected against DSP-4 induced noradrenaline depletion
same,5-HIAA,"[2]; 0.58 μmol/kg, 5 hr, ip",350 ± 28 ng/g
same,5-HT,"[2]; 0.58 μmol/kg, 5 hr, ip",652 ± 69 ng/g
same,DA,"[2]; 0.58 μmol/kg, 5 hr, ip",716 ± 82 ng/g
same,DOPAC,"[2]; 0.58 μmol/kg, 5 hr, ip",77 ± 9 ng/g
same,NA,"[2]; 0.58 μmol/kg, 5 hr, ip",1155 ± 81 ng/g
same,5-HIAA,"[2]; 5.75 μmol/kg, 5 hr, ip",327 ± 26 ng/g
same,5-HT,"[2]; 5.75 μmol/kg, 5 hr, ip",634 ± 58 ng/g
same,DA,"[2]; 5.75 μmol/kg, 5 hr, ip",717 ± 85 ng/g
same,DOPAC,"[2]; 5.75 μmol/kg, 5 hr, ip",80 ng/g
same,NA,"[2]; 5.75 μmol/kg, 5 hr, ip",1332 ± 98 ng/g
same,5-HIAA,"[2]; 57.5 μmol/kg, 5 hr, ip",294 ± 22 ng/g
same,5-HT,"[2]; 57.5 μmol/kg, 5 hr, ip",1324 ng/g
same,DA,"[2]; 57.5 μmol/kg, 5 hr, ip",753 ± 99 ng/g
same,DOPAC,"[2]; 57.5 μmol/kg, 5 hr, ip",49 ng/g
same,NA,"[2]; 57.5 μmol/kg, 5 hr, ip",1672 ± 82 ng/g
same,5-HIAA,"[2]; 150 μmol/kg, 5 hr, ip",131 ± 8 ng/g
same,5-HT,"[2]; 150 μmol/kg, 5 hr, ip",1497 ng/g
same,DA,"[2]; 150 μmol/kg, 5 hr, ip",522 ± 28 ng/g
same,DOPAC,"[2]; 150 μmol/kg, 5 hr, ip",45 ± 4 ng/g
same,NA,"[2]; 150 μmol/kg, 5 hr, ip",2050 ± 202 ng/g
same,5-HIAA,"[2]; 173 μmol/kg, 5 hr, ip",148 ± 10 ng/g
same,5-HT,"[2]; 173 μmol/kg, 5 hr, ip",1509 ng/g
same,DA,"[2]; 173 μmol/kg, 5 hr, ip",865 ± 19 ng/g
same,DOPAC,"[2]; 173 μmol/kg, 5 hr, ip",30 ng/g
same,NA,"[2]; 173 μmol/kg, 5 hr, ip",1867 ± 253 ng/g
same,5-HIAA,[2]; 2 × 75 μmol/kg per os,197 ng/g
same,5-HT,[2]; 2 × 75 μmol/kg per os,1215 ± 36 ng/g
same,DA,[2]; 2 × 75 μmol/kg per os,487 ± 47 ng/g
same,DOPAC,[2]; 2 × 75 μmol/kg per os,50 ± 3 ng/g
same,NA,[2]; 2 × 75 μmol/kg per os,2230 ± 101 ng/g
same,5-HIAA concentrations,"[2]; dose dependent, in words",significantly reduced 5-HIAA and DOPAC concentrations
same,5-HT concentrations,"[2]; dose dependent, in words",significantly elevated 5-HT and NA concentrations
same,DOPAC concentrations,"[2]; dose dependent, in words",significantly reduced 5-HIAA and DOPAC concentrations
same,NA concentrations,"[2]; dose dependent, in words",significantly elevated 5-HT and NA concentrations
same,reduction in 5-hydroxyindoleacetic acid concentrations compared with phenelzine,"[2]; equivalent doses, in words",comparable to that determined with equivalent doses of phenelzine
same,% Inhibition of Monoamine Oxidase-B,"[3]; brain, 0.58 μmol/kg, 5 hr, i.p. in 10% DMSO (Table 4, MAO-B by title)",-4.7 ± 2.0%
same,% Inhibition of Monoamine Oxidase-B,"[3]; brain, 5.75 μmol/kg, 5 hr, i.p. in 10% DMSO (Table 4, MAO-B by title)",11.8 ± 5.1%
same,% Inhibition of Monoamine Oxidase-B,"[3]; brain, 57.5 μmol/kg, 5 hr, i.p. in 10% DMSO (Table 4, MAO-B by title)",66.1 ± 6.9%
same,% Inhibition of Monoamine Oxidase-B,[3]; [6],85.5 ± 1.7%
same,% Inhibition of Monoamine Oxidase-B,"[3]; brain, 173 μmol/kg, 5 hr, i.p. in 10% DMSO (Table 4, MAO-B by title)",93.2 ± 0.8%
same,% Inhibition of Monoamine Oxidase-B,[3]; [7],85.4 ± 2.1%
same,% Inhibition of Monoamine Oxidase-B,"[3]; liver, 0.58 μmol/kg, 5 hr, i.p. in 10% DMSO (Table 4, MAO-B by title)",1.1 ± 5.4%
same,% Inhibition of Monoamine Oxidase-B,"[3]; liver, 5.75 μmol/kg, 5 hr, i.p. in 10% DMSO (Table 4, MAO-B by title)",29.3 ± 2.8%
same,% Inhibition of Monoamine Oxidase-B,"[3]; liver, 57.5 μmol/kg, 5 hr, i.p. in 10% DMSO (Table 4, MAO-B by title)",64.0 ± 5.5%
same,% Inhibition of Monoamine Oxidase-B,"[3]; liver, 173 μmol/kg, 5 hr, i.p. in 10% DMSO (Table 4, MAO-B by title)",87.9 ± 1.0%
same,% Inhibition of Monoamine Oxidase-B,[3]; [8],82.3 ± 2.3%
same,MAO-A % Inhibition,MAO-A; [5],57.9 ± 2.9%
same,preference for MAO-A inhibition,"MAO-A; DSP-4 experiment, 10 mg/kg, in words",strong preference for MAO-A inhibition
same,% Inhibition (serotonin uptake),[4]; 1 × 10^-4 M,90.1 ± 3.3%
same,% Inhibition (serotonin uptake),[4]; 1 × 10^-5 M,50.2 ± 2.5%
same,% Inhibition (serotonin uptake),[4]; 1 × 10^-6 M,49.1 ± 4.3%
"C#CCN(CCc1ccccc1)NC(C)=O [CVT-P041, N^1 -propargyl-N^2 -acetylphenelzine]",protection against DSP-4 induced noradrenaline depletion / neuroprotective effect,[1],did not exhibit a neuroprotective effect
same,5-HIAA,"[2]; 150 μmol/kg, 5 hr, ip",179 ± 6 ng/g
same,5-HT,"[2]; 150 μmol/kg, 5 hr, ip",1100 ng/g
same,DA,"[2]; 150 μmol/kg, 5 hr, ip",461 ± 34 ng/g
same,DOPAC,"[2]; 150 μmol/kg, 5 hr, ip",91 ± 6 ng/g
same,NA,"[2]; 150 μmol/kg, 5 hr, ip",2141 ± 86 ng/g
same,5-HIAA,[2]; 2 × 75 μmol/kg per os,228 ± 17 ng/g
same,DOPAC,[2]; 2 × 75 μmol/kg per os,50 ng/g
same,NA,[2]; 2 × 75 μmol/kg per os,1749 ng/g
same,% Inhibition of Monoamine Oxidase-B,[3]; [6],77.6 ± 0.4%
same,% Inhibition of Monoamine Oxidase-B,[3]; [7],73.6 ± 2.2%
same,% Inhibition of Monoamine Oxidase-B,[3]; [8],97.4 ± 0.2%
same,MAO-A % Inhibition,"MAO-A; 10 mg/kg then DSP-4 50 mg/kg, saline control experiment",4.3 ± 6.2%
same,% Inhibition (serotonin uptake),[4]; 1 × 10^-4 M,22.2 ± 4.6%

# Source: patent US6060516A, “N^1 -propargylhydrazines, N^2 -propargylhydrazines and their analogs for the treatment of depression, anxiety and neurodegeneration” (CV Technologies, Inc., priority 1998, dated 2000)
